In brackets after ≈: the same amount, converted by molar mass. Activity calls are given as the source filed them. No cut-off for these calls is given here.
Key:
HeLa = test: Antiproliferative activity against human HeLa cells assessed as inhibition of cell growth measured after 72 hrs by MTT assay; type: functional, cell-based
A549 = test: Antiproliferative activity against human A549 cells assessed as inhibition of cell growth measured after 72 hrs by MTT assay; type: functional, cell-based; details: A549, 72 h
SGC-7901 [1] = test: Antiproliferative activity against human SGC-7901 cells assessed as inhibition of cell growth measured after 72 hrs by MTT assay; type: functional, cell-based; details: SGC-7901, 72 h
[2] = Solubility of compound in water at pH 7.4 by UV-HPLC method; type: physicochemical
SGC-7901 [3] = test: Induction of microtubule disruption in human SGC-7901 cells assessed as change in shape of nucleus at 0.084 uM measured after 24 hrs by DAPI staining based immunofluorescence assay; type: cell-based
SGC-7901 [4] = test: Induction of microtubule disruption in human SGC-7901 cells assessed as appearance of disorganised microtubule at 0.084 uM measured after 24 hrs by DAPI staining based immunofluorescence assay; type: cell-based
SGC-7901 [5] = test: Induction of microtubule disruption in human SGC-7901 cells assessed as shrinkage of microtubule at 0.084 uM measured after 24 hrs by DAPI staining based immunofluorescence assay; type: cell-based
SGC-7901 [6] = test: Cell cycle arrest in human SGC-7901 cells assessed as increase in sub-G1 cell population at 0.084 uM after 72 hrs by propidium iodide staining based flow cytometry; type: functional
SGC-7901 [7] = test: Cell cycle arrest in human SGC-7901 cells assessed as increase in G2/M cell population at 0.084 uM by propidium iodide staining based flow cytometry; type: functional; details: time 12-72 hrs, TDE = time-dependent effect
SGC-7901 [8] = test: Cell cycle arrest in human SGC-7901 cells assessed as decrease in G1 cell population at 0.084 uM by propidium iodide staining based flow cytometry; type: functional; details: time 12-72 hrs, TDE = time-dependent effect
Sus scrofa = organism: Sus scrofa; test: (§1) Inhibition of porcine tubulin polymerization measured for 60 mins by fluorescence assay
[9] = as §1; parameters: species or system Sus scrofa
SGC-7901 [10] = test: Cell cycle arrest in human SGC-7901 cells assessed as accumulation at G2/M cell population at 0.084 uM measured after 12 hrs by propidium iodide staining based flow cytometry (reference value: 14.5%); type: functional
SGC-7901 [11] = test: Cell cycle arrest in human SGC-7901 cells assessed as increase in G2/M cell population at 0.023 uM by propidium iodide staining based flow cytometry; type: functional; details: time 12-72 hrs, TDE = time-dependent effect
SGC-7901 [12] = test: Cell cycle arrest in human SGC-7901 cells assessed as increase in sub-G1 cell population at 0.023 uM after 72 hrs by propidium iodide staining based flow cytometry; type: functional
SGC-7901 [13] = test: Cell cycle arrest in human SGC-7901 cells assessed as decrease in G1 cell population at 0.023 uM by propidium iodide staining based flow cytometry; type: functional; details: time 12-72 hrs, TDE = time-dependent effect

SMILES	IC50 (HeLa) [nM]	IC50 (A549) [nM]	IC50 (SGC-7901 [1]) [nM]	other results
COc1cc(C(=O)c2nn(-c3ccccc3)nc2N2CCN(C(=O)OC(C)(C)C)CC2)cc(OC)c1OC	> 30000	> 30000	11300	–
COc1ccc(/C=C\c2cc(OC)c(OC)c(OC)c2)cc1O [COMBRETASTATIN A4]	–	–	–	solubility [2]: 0.1 µg/mL (≈ 0.316 µM)
COc1cc(C(=O)c2nn(-c3ccc([N+](=O)[O-])cc3)nc2N2CCN(C(C)=O)CC2)cc(OC)c1OC	212	684	417	–
COc1cc(C(=O)c2nn(-c3ccc(Cl)cc3)nc2N2CCN(C(C)=O)CC2)cc(OC)c1OC	1080	628	406	–
COc1cc(C(=O)c2nn(-c3ccccc3C)nc2N2CCN(C(C)=O)CC2)cc(OC)c1OC	2690	8350	2380	–
COc1ccc(-n2nc(C(=O)c3cc(OC)c(OC)c(OC)c3)c(N3CCN(C(C)=O)CC3)n2)cc1	208	1100	1150	–
COc1ccc(-n2nc(C(=O)c3cc(OC)c(OC)c(OC)c3)c(N3CCN(C(C)=O)CC3)n2)cc1N	1360	648	550	–
COc1cc(C(=O)c2nn(-c3ccccc3)nc2N2CCCCC2)cc(OC)c1OC	3620	6450	3720	–
COc1cc(C(=O)c2nn(-c3ccccc3)nc2N2CCOCC2)cc(OC)c1OC	891	488	5860	–
COc1cc(C(=O)c2nn(-c3ccccc3)nc2N2CCN(C)CC2)cc(OC)c1OC	135	622	6580	–
COc1cc(C(=O)c2nn(-c3ccccc3)nc2N2CCN(C(C)C)CC2)cc(OC)c1OC	6420	7300	2680	–
COc1cc(C(=O)c2nn(-c3ccc(Br)cc3)nc2N2CCN(C(C)=O)CC2)cc(OC)c1OC	> 30000	9060	861	–
COc1cc(C(=O)c2cnn(-c3ccccc3)n2)cc(OC)c1OC	11400	7100	870	solubility [2]: < 0.5 µg/mL
COc1cc(C(=O)c2nn(-c3cccc(F)c3)nc2N2CCN(C(C)=O)CC2)cc(OC)c1OC	6200	> 30000	1690	–
COc1cc(C(=O)c2nn(-c3ccccc3)nc2N2CCN(C(C)=O)CC2)cc(OC)c1OC	221	133	84	Activity (SGC-7901 [3]): Active; Activity (SGC-7901 [4]): Active; Activity (SGC-7901 [5]): Active; Activity (SGC-7901 [6]): Active; solubility [2]: 2.7 µg/mL (≈ 5.8 µM); Activity (SGC-7901 [7]): Tde; Activity (SGC-7901 [8]): Tde; inhibition (Sus scrofa): Dose-dependent effect; IC50 [9]: 28300 nM; Activity (SGC-7901 [10]): 53.9%
COc1cc(C(=O)c2csc(-c3ccccc3)n2)cc(OC)c1OC	37	34	–	Activity (SGC-7901 [11]): Tde; solubility [2]: < 0.5 µg/mL; Activity (SGC-7901 [12]): Active; Activity (SGC-7901 [13]): Tde
COc1cc(C(=O)c2nn(-c3cc(C)ccc3C)nc2N2CCN(C(C)=O)CC2)cc(OC)c1OC	> 30000	> 30000	> 30000	–
COc1ccc(-n2nc(C(=O)c3cc(OC)c(OC)c(OC)c3)c(N3CCN(C(C)=O)CC3)n2)cc1[N+](=O)[O-]	> 30000	> 30000	> 30000	–
COc1cc(C(=O)c2nn(-c3ccccc3)nc2N2CCNCC2)cc(OC)c1OC	342	4310	1240	solubility [2]: 2.2 µg/mL (≈ 5.2 µM)
COc1cc(C(=O)c2nn(-c3ccccc3F)nc2N2CCN(C(C)=O)CC2)cc(OC)c1OC	513	4650	171	–
COc1cc(C(=O)c2nn(-c3ccc(F)cc3)nc2N2CCN(C(C)=O)CC2)cc(OC)c1OC	3480	> 30000	344	–
COc1cc(C(=O)c2nn(-c3ccc(C)c(C)c3)nc2N2CCN(C(C)=O)CC2)cc(OC)c1OC	3920	2610	4830	–
COc1cc(C(=O)c2nn(-c3cccc(C)c3)nc2N2CCN(C(C)=O)CC2)cc(OC)c1OC	> 30000	> 30000	> 30000	–
COc1cc(C(=O)c2nn(-c3ccc(C)cc3)nc2N2CCN(C(C)=O)CC2)cc(OC)c1OC	298	764	426	–

From ChEMBL document CHEMBL4715834, “Design, synthesis and bio-evaluation of novel 2-aryl-4-(3,4,5-trimethoxy-benzoyl)-5-substituted-1,2,3-triazoles as the tubulin polymerization inhibitors” (Eur J Med Chem, 2020)
